{"source": "patent US12054485B2", "about": "“Substituted imidazoquinolines” (BIONTECH SE, priority 2017, dated 2024)", "origin": "cited, not measured here", "test_system": "superficial basal cell carcinomas", "settings": "5% cream (Aldara), topical; cited from earlier work"}
{"smiles": "CC(C)Cn1cnc2c(N)nc3ccccc3c21", "note": "[Imiquimod, imiquimod]", "values": [{"measurement": "5-year clearance of superficial basal cell carcinomas", "value": "approx. 80%"}]}
